Laboratory results taken from patent US20230000852A1, “Treatment of Dermal Cytokine Storm Syndromes” (Bridge Pharma, Inc., priority 2021, published 2023).
Like-named read-outs stand apart in the source and are kept apart here.

Key:
[1] = system: IL-8; assay: PHA-induced IL-8 release from human leucocytes (buffy coats); format: cell-based; details: Leucocyte, 30 min pre-incubation, PHA 5 μg/ml 16 hours
Experimental: (§1) The objective of this study was to assess the ability of norketotifen to inhibit cytokine release from stimulated human leucocytes.
(§2) The study was conducted in two phases. The first phase included optimization of the test methodology and including dose-range finding studies, using buffy coats from 3 human donors, stimulated with phytohemagglutinin (PHA). Following optimization of the test conditions, a final protocol was issued. In the ensuing Main Study, white blood cells (buffy coats) from 5 healthy human donors were stimulated with PHA, 5 μg/ml. The concentrations of the test article and the duration of exposure were optimized to obtain acceptable dose-response ratios. Thus, the inhibitory effects of three concentrations of NK and one concentration of ketotifen were evaluated in the Main Study. The buffy coats containing white blood cells from 5 male human donors were resuspended in assay media and were pre-incubated for 30 min with either vehicle/saline, ketotifen 4.3 μg/ml (10 μM) and norketotifen 0.4 μg/ml, 4.1 μg/ml and 41 μg/ml (1.0; 10 and 100 μM). Following these preincubations, the white blood cells were stimulated for 16 hours with PHA, 5 μg/ml. The cell system supernatants were then harvested and stored frozen pending analyses.
(§3) The concentration of the test articles had to be high in this ex vivo study since the test kit used a high concentration of the agonist PHA (5 μg/ml) and a long exposure time (16 hrs).

[2] = system: IL-4; assay: PHA-induced IL-4 release from human leucocytes (buffy coats); format: cell-based; details: Leucocyte, 30 min pre-incubation, PHA 5 μg/ml 16 hours
Experimental: as §1, §2, §3

[3] = system: MIP-1a; assay: PHA-induced MIP-1a release from human leucocytes (buffy coats); format: cell-based; details: Leucocyte, 30 min pre-incubation, PHA 5 μg/ml 16 hours
Experimental: as §1, §2, §3

[4] = system: TNFα; assay: PHA-induced TNFα release from human leucocytes (buffy coats); format: cell-based; details: Leucocyte, 30 min pre-incubation, PHA 5 μg/ml 16 hours
Experimental: as §1, §2, §3

[5] = system: sedation; details: art-accepted mouse model of sedation; U.S. Pat. Nos. 7,226,934 and 7,557,128; cited from earlier work
[6] = system: IL-13; assay: PHA-induced IL-13 release from human leucocytes (buffy coats); format: cell-based; details: Leucocyte, 30 min pre-incubation, PHA 5 μg/ml 16 hours
Experimental: as §1, §2, §3

[7] = system: sedation; details: humans, oral; U.S. Pat. Nos. 9,138,431 and 9,345,697; cited from earlier work
[8] = system: MCP-1; assay: PHA-induced MCP-1 release from human leucocytes (buffy coats); format: cell-based; details: Leucocyte, 30 min pre-incubation, PHA 5 μg/ml 16 hours
Experimental: as §1, §2, §3

[9] = system: IL-6; assay: PHA-induced IL-6 release from human leucocytes (buffy coats); format: cell-based; details: Leucocyte, 30 min pre-incubation, PHA 5 μg/ml 16 hours
Experimental: as §1, §2, §3

[10] = system: IL-2; assay: PHA-induced IL-2 release from human leucocytes (buffy coats); format: cell-based; details: Leucocyte, 30 min pre-incubation, PHA 5 μg/ml 16 hours
Experimental: as §1, §2, §3

[11] = system: human leucocytes (buffy coats); assay: Cytokine and chemokine release from stimulated human leucocytes, overall; format: cell-based; details: PHA 5 μg/ml, 16 hours
Experimental: as §1
as §2, with “analyses. […]” for “analyses.”

[12] = system: IMQ-induced psoriasiform hypercytokinemia; assay: Imiquimod (IMQ) induced psoriasis in mice; format: in vivo; details: for Scratching bouts: Day 6, 30 minutes observation; for Total Scores ± SEM: cumulative erythema plus scaling plus thickness; for Mean Scores of Skin Lesions: Redness / Mean Scores of Skin Lesions: Scaling / Mean Scores of Skin Lesions: Thickness: scale 0 to 4
Source text: The objective of this study was to assess the ability of NK to inhibit the IMQ-induced psoriasiform hypercytokinemia in mice. Topically applied IMQ is known to induce a psoriasis-like Cytokine Storm in mice by releasing a large number of cytokines, thereby causing a disease (hypercytokinemia) that is closely similar to psoriasis in human patients. Female BALB/c mice were used (8-11 weeks old; 4 animals/group). A psoriasiform skin condition was induced by repeated applications of an IMO-cream on the pre-shaved skin of the back of mice for 6 days, using […] 5% cream (IMQ-cream), at a dose of 62.5 mg per mouse, which is equal to 3.125 mg active per mouse. Starting from day 3 of dosing the skin was scored for Redness, Thickness and Scaling using a scoring system on the scale of 0 to 4, where 0=none; 1=slight; 2=moderate; 3=marked; and 4=very marked. The cumulative scores (erythema plus scaling plus thickness) served as a measure of the severity of dermal, psoriasis-like inflammation. […] A scratch bout was defined as one or more rapid back-and-forth hind paw motions directed toward and contacting the IMQ-treated area. • Group 1: (IMQ Positive Control Group): 4 mice were treated as described above. • Group 2: 4 mice were given NK 10 mg/kg/day, PO, starting 3 days before the first application of IMQ. • Group 3: same treatment as Group 2, but the dose of NK was 20 mg/kg/day. • Group 4: same treatment as Group 3, but the dose of NK was 30 mg/kg/day. ANOVA (Dunnett's Method)-positive control (IMQ) vs test groups. The methodology used here was the van der Fits (2009) method with minor modifications.

[13] = system: IL-10; assay: PHA-induced IL-10 release from human leucocytes (buffy coats); format: cell-based; details: Leucocyte, 30 min pre-incubation, PHA 5 μg/ml 16 hours
Experimental: as §1, §2, §3

[14] = system: sedation; details: dogs, oral; U.S. Pat. No. 8,557,846; cited from earlier work
[15] = system: IL31-induced (SC) pruritus; assay: IL-31-induced pruritus in mice; format: in vivo; details: at the dose tested
Experimental: To determine if NK inhibits IL31-induced pruritus in mice. Studies have now been performed, using murine IL31 as a pruritogen. Mice were dosed orally with a test article exactly 60 minutes before murine IL31 at a dose of 1.0 μg/30 gram body weight was injected subcutaneously into a previously depilated area on the rostral part of the back of mice. IL31 was dissolved in phosphate buffered saline (PBS) with 0.1% bovine serum albumin (BSA). The injected volume was 0.1 ml/mouse. The bouts of scratching were counted for 120 min, starting 30 min after the injection of IL31. The bouts of scratching were counted by trained laboratory personnel who were unaware of the pretreatment of the animals. Oclacitinib (Apoquel®) is a Janus kinase inhibitor that is the worldwide market leader for oral treatment of atopic dermatitis in dogs.

O=C1Cc2ccccc2C(=C2CCNCC2)c2ccsc21 (racemic) [NK, norketotifen]
inhibition at 1 µM ([1]; 1 uM): 10.3%
inhibition at 10 µM ([1]; 10 uM): 34.4%
inhibition at 100 µM ([1]; 100 uM): 78.3%
inhibition at 1 µM ([2]; 1 uM): 0%
inhibition at 10 µM ([2]; 10 uM): 14.3%
inhibition at 100 µM ([2]; 100 uM): 98.3%
inhibition at 1 µM ([3]; 1 uM): 9.53%
inhibition at 10 µM ([3]; 10 uM): 25.9%
inhibition at 100 µM ([3]; 100 uM): 91%
inhibition at 1 µM ([4]; 1 uM): 4.54%
inhibition at 10 µM ([4]; 10 uM): 42.2%
inhibition at 100 µM ([4]; 100 uM): 89.1%
Sedative effects [5]: significant sedative effects
inhibition at 1 µM ([6]; 1 uM): 0%
inhibition at 10 µM ([6]; 10 uM): 34.5%
inhibition at 100 µM ([6]; 100 uM): 74.2%
Sedative side effects [7]: free from sedative side effects
inhibition at 1 µM ([8]; 1 uM): 2.04%
inhibition at 10 µM ([8]; 10 uM): 14.3%
inhibition at 100 µM ([8]; 100 uM): 84.5%
inhibition at 1 µM ([9]; 1 uM): 0%
inhibition at 10 µM ([9]; 10 uM): 33.1%
inhibition at 100 µM ([9]; 100 uM): 88.2%
inhibition at 1 µM ([10]; 1 uM): 0%
inhibition at 10 µM ([10]; 10 uM): 46.6%
inhibition at 100 µM ([10]; 100 uM): 93.5%
Inhibition of release of cytokines and chemokines from human white blood cells (in words) [11]: dose-dependently inhibited
Scratching bouts ([12]; NK 10 mg/kg/day PO from 3 days before IMQ): 7.0
Total Scores ± SEM ([12]; NK 10 mg/kg/day oral): 1.5 ± 0.65
Mean Scores of Skin Lesions: Redness ([12]; NK 10 mg/kg/day oral): 0.75
Mean Scores of Skin Lesions: Scaling ([12]; NK 10 mg/kg/day oral): 0.25
Mean Scores of Skin Lesions: Thickness ([12]; NK 10 mg/kg/day oral): 0.5
Scratching bouts ([12]; NK 20 mg/kg/day PO from 3 days before IMQ): 4.25
Total Scores ± SEM ([12]; NK 20 mg/kg/day oral): 0.5 ± 0.29
Mean Scores of Skin Lesions: Redness ([12]; NK 20 mg/kg/day oral): 0.5
Mean Scores of Skin Lesions: Scaling ([12]; NK 20 mg/kg/day oral): 0
Mean Scores of Skin Lesions: Thickness ([12]; NK 20 mg/kg/day oral): 0
Total Scores ± SEM ([12]; NK 30 mg/kg/day oral): 0.33 ± 0.33
Mean Scores of Skin Lesions: Redness ([12]; NK 30 mg/kg/day oral): 0.33
Mean Scores of Skin Lesions: Scaling ([12]; NK 30 mg/kg/day oral): 0
Mean Scores of Skin Lesions: Thickness ([12]; NK 30 mg/kg/day oral): 0
Inhibition of psoriasis-related cytokine storm (in words) ([12]; antipruritic activity and redness, thickness, scaling scores): almost completely inhibited
Effect on scratching in mice (in words) ([12]; oral NK, not statistically significant (p>0.05)): dose-dependent effect
inhibition at 1 µM ([13]; 1 uM): 12.7%
inhibition at 10 µM ([13]; 10 uM): 24.8%
inhibition at 100 µM ([13]; 100 uM): 90.4%
Sedative side effects [14]: free from sedative side effects
Effect on IL-31-induced pruritus (in words) [15]: decreased IL-31-induced pruritus
